Values after ≈ are worked out from the molar mass of the structure shown. Where two headings read alike, the source gives them in different places.
Assays:
[1] = target: S. aureus GuaB (Staphylococcus aureus, UniProt P99106); assay: GuaB biochemical IC50
[2] = target: E. coli GuaB (Escherichia coli, UniProt P0ADG7); assay: GuaB biochemical IC50
[3] = target: H. sapiens IMPDH2 (Homo sapiens, UniProt P12268); assay: IMPDH2 biochemical IC50
[4] = test system: Staphylococcus aureus; assay: MIC, CLSI microdilution; format: cell-based; details: NRS 384 / USA300; Staphylococcus aureus USA300 NRS384; RPMI1640
[5] = test system: Staphylococcus epidermidis; assay: MIC, CLSI microdilution; format: cell-based; details: Staphylococcus epidermidis RP62A (ATCC35984); RPMI1640
[6] = test system: Mycobacterium avium; assay: MIC, CLSI microdilution; format: cell-based; details: 336 h; Mycobacterium avium (ATCC25291); 7H9 + OADC, 14 days
[7] = test system: Mycobacterium tuberculosis H37Rv; assay: MIC, resazurin redox assay; format: cell-based; details: ATCC 27294 / H37Rv, 192 h, Mycobacterium tuberculosis H37Rv (ATCC27294)
[8] = test system: Mycobacterium marinum; assay: MIC, CLSI microdilution; format: cell-based; details: 7H9 + OADC, 48 h
[9] = test system: Mycobacterium smegmatis; assay: MIC, CLSI microdilution; format: cell-based; details: Mycolicibacterium smegmatis; Mycobacterium smegmatis mc2-155; 7H9 + OADC, 48 h
[10] = test system: Enterococcus faecium; assay: MIC, CLSI microdilution; format: cell-based; details: Enterococcus faecium (ATCC700221); RPMI1640
[11] = test system: Enterococcus faecalis; assay: MIC, CLSI microdilution; format: cell-based; details: Enterococcus faecalis (ATCC47077); RPMI1640
[12] = test system: Bacillus subtilis; assay: MIC, CLSI microdilution; format: cell-based; details: RPMI1640
[13] = test system: Pseudomonas aeruginosa; assay: MIC, CLSI microdilution; format: cell-based; details: 20 h; Pseudomonas aeruginosa PAO1; M9 + casamino acids + glucose
[14] = test system: Acinetobacter baumannii; assay: MIC, CLSI microdilution; format: cell-based; details: 20 h, M9 + casamino acids + glucose
[15] = test system: Citrobacter werkmanii; assay: MIC, CLSI microdilution; format: cell-based; details: 20 h; Citrobacter werkmanii (ATCC51114); M9 + casamino acids + glucose
[16] = test system: Serratia marcescens; assay: MIC, CLSI microdilution; format: cell-based; details: 20 h; Serratia marcescens (ATCC29021); M9 + casamino acids + glucose
[17] = test system: Enterobacter cloacae; assay: MIC, CLSI microdilution; format: cell-based; details: 20 h; Enterobacter cloacae (ATCC222); M9 + casamino acids + glucose
[18] = test system: Enterobacter aerogenes; assay: MIC, CLSI microdilution; format: cell-based; details: Klebsiella aerogenes, 20 h; Enterobacter aerogenes (ATCC13048); M9 + casamino acids + glucose
[19] = test system: Klebsiella pneumoniae; assay: MIC, CLSI microdilution; format: cell-based; details: ATCC43816, 20 h; Klebsiella pneumoniae (ATCC 43816); M9 + casamino acids + glucose
[20] = test system: Proteus mirabilis; assay: MIC, CLSI microdilution; format: cell-based; details: 20 h; Proteus mirabilis (ATCC29906); M9 + casamino acids + glucose
[21] = test system: A. baumannii 19606 (wild-type); assay: microbe, parasite or virus in culture; format: cell-based, Acinetobacter baumannii; details: for MIC: Acinetobacter baumannii
[22] = test system: A. baumannii ΔadeJ (efflux-defective); assay: microbe, parasite or virus in culture; format: cell-based; details: Acinetobacter baumannii, read-out: Avg. MIC
[23] = test system: A. baumannii ΔlpxA (LPS-null); assay: MIC on LPS-null A. baumannii; format: cell-based; details: Acinetobacter baumannii, read-out: Avg. MIC
[24] = target: T1, hERG (Homo sapiens, UniProt Q12809); assay: hERG 2-point automatic patch clamp assay; format: cell-based
T1 construct: expressed in transfected cells; host or cells: HEK293
Description: All chemicals used in solution preparation were purchased from Sigma-Aldrich (St. Louis, MO) unless otherwise noted. Test article and positive control concentrations were prepared fresh daily by diluting stock solutions into a HEPES-buffered physiological saline solution (composition in mM): NaCl, 137; KCl, 4.0; CaCl2, 1.8; MgCl2, 1; HEPES, 10; glucose, 10; pH adjusted to 7.4 with NaOH. HEK293 cells were stably transfected with hERG cDNA and maintained in the culture medium with the appropriate selection pressure and antibiotics. All experiments were performed at room temperature. […]
In preparation for a recording session, intracellular solution was loaded into the intracellular compartments of the QPlate and cell suspension was pipetted into the extracellular compartments. After establishment of a whole-cell configuration, membrane currents were recorded using up to 48 parallel patch clamp amplifiers in the QPatch HT system. The current records were sampled at 2,000 Hz and low-pass Bessel filtered at 400 Hz. Onset and block of hERG current were measured using a stimulus voltage pattern consisting of a 500 ms prepulse to –40 mV (leakage subtraction), a 2-s activating pulse to +40 mV, followed by a 2-s test pulse to −40 mV. The pulse pattern was repeated continuously at 10-s intervals, from a holding potential of −80 mV. Peak tail current (upper panel) was measured during the −40 mV test pulse. Leakage current was calculated from the current amplitude evoked by the prepulse and subtracted from the total membrane current record. Data acquisition and analysis was performed using the QPatch Assay Software (Sophion Bioscience A/S, Denmark). Solubility of all compounds was measured using TurboSol in conjunction with the ion channel testing.

[25] = in vitro; format: cell-based, human; details: human
Description: (§1) Primary human hepatocytes were plated on 384-well, collagen-coated plates in incubation media with no serum or with 10% fetal bovine serum (FBS). Eighteen hours later, cells were treated with the test article at seven concentrations starting at 100 µM in twofold dilutions, chlorpromazine (positive control) at seven concentrations starting at 100 µM in twofold dilutions or aflatoxin (positive control) at seven concentrations starting at 25 µM in twofold dilutions. Cell viability was then assayed using the Promega Cell TiterGlo ATP Assay.

[26] = test system: Primary human hepatocytes; assay: in vitro; format: cell-based
Description: as §1

[27] = 24 h, M9 media + 100µM guanine, 24 hours, read-out: A.b.19606 Average CLSI MIC (n=3)
[28] = 24 h, M9 media, 24 hours, read-out: A.b.19606 Average CLSI MIC (n=3)
[29] = A. baumannii 19606 wild-type (Fig 3D), read-out: Avg. MIC
[30] = guaB allele wild-type, M9 media (cross-resistance table), read-out: A.b.19606 Average CLSI MIC (n=3)
[31] = General cytotoxicity IC50, Serum
[32] = General cytotoxicity IC50, Serum-Free

Chain of S. aureus GuaB (P99106 whole entry): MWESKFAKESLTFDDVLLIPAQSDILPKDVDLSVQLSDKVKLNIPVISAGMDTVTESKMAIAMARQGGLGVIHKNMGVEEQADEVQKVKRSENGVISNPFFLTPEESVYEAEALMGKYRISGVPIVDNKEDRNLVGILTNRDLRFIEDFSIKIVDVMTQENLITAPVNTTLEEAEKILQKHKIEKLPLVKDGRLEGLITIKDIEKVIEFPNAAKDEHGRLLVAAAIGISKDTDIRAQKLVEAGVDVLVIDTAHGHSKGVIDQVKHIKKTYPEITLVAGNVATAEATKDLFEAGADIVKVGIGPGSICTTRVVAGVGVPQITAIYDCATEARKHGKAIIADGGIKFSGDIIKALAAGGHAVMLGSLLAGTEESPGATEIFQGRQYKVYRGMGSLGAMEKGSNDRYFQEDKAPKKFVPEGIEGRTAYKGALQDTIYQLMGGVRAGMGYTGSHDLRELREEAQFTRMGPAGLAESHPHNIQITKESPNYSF
T1 sequence (Q12809 whole entry): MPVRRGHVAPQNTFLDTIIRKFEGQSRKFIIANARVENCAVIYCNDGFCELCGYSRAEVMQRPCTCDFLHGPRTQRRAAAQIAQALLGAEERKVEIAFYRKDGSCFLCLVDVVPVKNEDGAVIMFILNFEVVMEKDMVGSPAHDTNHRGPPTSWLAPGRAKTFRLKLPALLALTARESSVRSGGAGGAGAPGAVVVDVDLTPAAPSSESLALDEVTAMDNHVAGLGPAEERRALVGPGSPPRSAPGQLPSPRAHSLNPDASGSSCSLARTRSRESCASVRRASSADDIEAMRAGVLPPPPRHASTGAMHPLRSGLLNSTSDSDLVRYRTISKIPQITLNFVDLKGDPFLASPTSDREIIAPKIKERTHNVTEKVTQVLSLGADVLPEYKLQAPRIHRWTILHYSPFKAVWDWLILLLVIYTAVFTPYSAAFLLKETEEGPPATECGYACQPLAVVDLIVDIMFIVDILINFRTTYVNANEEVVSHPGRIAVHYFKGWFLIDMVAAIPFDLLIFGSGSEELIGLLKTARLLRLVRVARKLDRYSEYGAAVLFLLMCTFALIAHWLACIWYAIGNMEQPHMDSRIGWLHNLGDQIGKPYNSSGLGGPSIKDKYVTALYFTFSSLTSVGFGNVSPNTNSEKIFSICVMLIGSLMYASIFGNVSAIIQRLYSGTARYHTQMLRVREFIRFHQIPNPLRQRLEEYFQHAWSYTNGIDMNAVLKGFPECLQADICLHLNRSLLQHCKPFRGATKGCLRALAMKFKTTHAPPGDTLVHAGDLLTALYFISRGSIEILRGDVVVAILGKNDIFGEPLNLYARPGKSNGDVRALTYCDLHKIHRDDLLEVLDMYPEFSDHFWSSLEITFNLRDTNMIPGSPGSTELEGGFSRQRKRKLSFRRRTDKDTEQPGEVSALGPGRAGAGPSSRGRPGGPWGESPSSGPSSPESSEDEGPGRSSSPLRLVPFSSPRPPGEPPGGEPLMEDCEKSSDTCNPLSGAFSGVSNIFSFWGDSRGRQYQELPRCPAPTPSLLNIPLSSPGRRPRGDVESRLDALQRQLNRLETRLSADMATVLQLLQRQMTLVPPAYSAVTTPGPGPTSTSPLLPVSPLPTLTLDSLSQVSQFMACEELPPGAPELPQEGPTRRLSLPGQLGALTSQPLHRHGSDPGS
Chain of E. coli GuaB (P0ADG7 whole entry): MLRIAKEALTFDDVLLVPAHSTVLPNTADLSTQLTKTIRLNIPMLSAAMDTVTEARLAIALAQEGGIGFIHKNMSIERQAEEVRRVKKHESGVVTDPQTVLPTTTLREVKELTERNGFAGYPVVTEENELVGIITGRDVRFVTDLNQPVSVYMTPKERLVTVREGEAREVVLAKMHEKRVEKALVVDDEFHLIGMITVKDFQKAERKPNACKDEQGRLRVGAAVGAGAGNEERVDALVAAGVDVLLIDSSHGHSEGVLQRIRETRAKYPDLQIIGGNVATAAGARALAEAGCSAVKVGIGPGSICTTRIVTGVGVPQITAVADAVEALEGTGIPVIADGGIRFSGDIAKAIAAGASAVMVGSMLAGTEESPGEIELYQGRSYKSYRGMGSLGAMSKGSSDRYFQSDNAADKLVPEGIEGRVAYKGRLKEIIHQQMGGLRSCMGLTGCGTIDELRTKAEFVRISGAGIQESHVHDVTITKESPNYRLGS

SMILES | IC50 [1] [µM] | IC50 [2] [µM] | IC50 [3] [µM] | MIC [4] [µM] | MIC [5] [µM] | MIC [6] [µM] | MIC [7] [µM] | MIC [8] [µM] | MIC [9] [µM] | MIC [10] [µM] | MIC [11] [µM] | MIC [12] [µM] | MIC [13] [µM] | MIC [14] [µM] | MIC [15] [µM] | MIC [16] [µM] | MIC [17] [µM] | MIC [18] [µM] | MIC [19] [µM] | MIC [20] [µM] | further results
C[C@H](Nc1ccc2ncc3c(c2c1)CCOC3)C(=O)Nc1ccc(Cl)nc1 [G1, (2S)-N-(6-chloro-3-pyridyl)-2-(2,4-dihydro-1H-pyrano[3,4-c]quinolin-9 ylamino)propanamide] | 0.00038 | 0.48 | > 50 | 0.1 (≈ 0.0383 µg/mL) | 0.03 (≈ 0.0115 µg/mL) | 0.8 | 0.3 (≈ 0.115 µg/mL) | 0.01 | 0.01 | 1 (≈ 0.383 µg/mL) | 0.2 (≈ 0.0766 µg/mL) | 1.2 (≈ 0.459 µg/mL) | 100 | 0.5 | > 100 | > 100 | > 100 | > 100 | > 100 | > 100 | MIC [21, 27]: > 100 µM; MIC [21, 28]: 1 µM (≈ 0.383 µg/mL); MIC [21, 29]: 0.69 µM (≈ 0.264 µg/mL); MIC [21, 30]: 0.5 µM (≈ 0.191 µg/mL); GuaBi CLSI MIC fold change from parent strain ([21]; guaB allele wild-type): 1; MIC [22]: 0.016 µM (≈ 0.00613 µg/mL); MIC [23]: 0.025 µM (≈ 0.00957 µg/mL); hERG 1µM [24]: 2.80%; hERG 10µM [24]: 37.20%; IC50 at 2 day [25, 31]: > 100 µM; IC50 at 2 day [25, 32]: > 100 µM; in vitro safety profile: cytotoxicity [26]: low cytotoxicity
C[C@H](Nc1ccc2ncc(CO)cc2c1)C(=O)Nc1ccc(Cl)c(N(C)C)c1 [G2, (2S)-N-[4-chloro-3-(dimethylamino)phenyl]-2-[[3-(hydroxymethyl)-6-quinolyl]amino]propanamide] | 0.0034 | 0.016 | > 50 | 1.6 (≈ 0.638 µg/mL) | 0.4 (≈ 0.16 µg/mL) | 12.5 | 2.5 (≈ 0.997 µg/mL) | 0.1 | 1.3 | 5.2 (≈ 2.07 µg/mL) | 0.3 (≈ 0.12 µg/mL) | 13.8 (≈ 5.5 µg/mL) | > 100 | 3.1 | > 100 | > 100 | > 100 | > 100 | > 100 | > 100 | MIC [21, 27]: > 100 µM; MIC [21, 28]: 4.2 µM (≈ 1.68 µg/mL); MIC [21, 29]: 2 µM (≈ 0.798 µg/mL); MIC [21, 30]: 4.2 µM (≈ 1.68 µg/mL); GuaBi CLSI MIC fold change from parent strain ([21]; guaB allele wild-type): 1; MIC [22]: 0.04 µM (≈ 0.016 µg/mL); MIC [23]: 0.07 µM (≈ 0.0279 µg/mL); hERG 1µM [24]: 1.70%; hERG 10µM [24]: 8.60%; hERG 50µM [24]: *48.5%; IC50 at 2 day [25, 31]: > 100 µM; IC50 at 2 day [25, 32]: > 100 µM; in vitro safety profile: cytotoxicity [26]: low cytotoxicity
C[C@@H](Oc1ccc2ncc3c(c2c1)CCOC3)c1cncc(-c2nc(Cl)c[nH]2)c1 [G8, (R)-9-[1-[5-(4-chloro-1H-imidazol-2-yl)-3-pyridyl]ethoxy]-2,4-dihydro-1H-pyrano[3,4 c]quinoline] | 0.00021 | 0.008 | > 50 | 0.01 (≈ 0.00407 µg/mL) | 0.004 (≈ 0.00163 µg/mL) | 0.04 | 0.2 (≈ 0.0814 µg/mL) | 0.03 | 0.02 | 0.03 (≈ 0.0122 µg/mL) | 0.01 (≈ 0.00407 µg/mL) | 0.05 (≈ 0.0203 µg/mL) | 50 | 1.3 | > 100 | > 100 | > 100 | > 100 | > 100 | > 100 | MIC [21, 27]: > 100 µM; MIC [21, 28]: 0.4 µM (≈ 0.163 µg/mL); MIC [21, 29]: 0.39 µM (≈ 0.159 µg/mL); MIC [21, 30]: 0.3 µM (≈ 0.122 µg/mL); GuaBi CLSI MIC fold change from parent strain ([21]; guaB allele wild-type): 1; MIC [22]: 0.01 µM (≈ 0.00407 µg/mL); MIC [23]: 0.007 µM (≈ 0.00285 µg/mL); hERG 10µM [24]: 6.3%; hERG 50µM [24]: 50.1%; IC50 at 2 day [25, 31]: 19.2 µM; IC50 at 2 day [25, 32]: 30.2 µM; in vitro safety profile: cytotoxicity [26]: cytotoxicity liabilities

Reference: article PMC11481871, “Discovery of GuaB inhibitors with efficacy against Acinetobacter baumannii infection” (mBio, 2024)
